Measured values: patent US8722711B2, “Acylbenzene derivative” (Daiichi Sankyo Company, Limited, priority 2010, dated 2014)

system: Male C57/BL6J mice; test: Mouse oGTT (Oral Glucose Tolerance Test); assay type: in vivo; conditions: 2 h, fasted 16 to 17 hours, compound 10 mg/kg orally 30 minutes before oral glucose load, AUC from 5 minutes before to 120 minutes after glucose, read-out: percentage decrease in plasma glucose AUC (%) compared with the negative control group
Protocol: Mouse oGTT (Oral Glucose Tolerance Test)
A dosing preparation (1 mg/mL of each compound) was produced by suspending in a 0.5 w/v % methyl cellulose solution and then grinding in an agate mortar. Male C57/BL6J mice (Charles River Laboratories Japan, Inc.) were purchased at 6 to 8 weeks of age, and then used at 9 to 13 weeks of age. The mice were fasted from the hours of 17:00 to 18:00 on one day before the test day, and the test was started after 16 to 17 hours-fasting. Five mice were used for each group. Before dosing a compound, blood was collected from the tail vein. Thereafter, a suspension of the compound was orally administered at a dosage of 10 mg/kg. The 0.5 w/v % methyl cellulose solution was administered to a negative control group. Twenty five minutes after dosing the compound, blood was collected from the tail vein, and then thirty minutes after dosing the compound, 30 w/v % glucose solution was orally administered at a volume of 10 mL/kg. Blood was collected from the tail vein 15, 30, 60 and 120 minutes after the glucose administration. Each of the blood samples was centrifuged to obtain the plasma, and the plasma glucose level (mg/dL) was measured with a glucose analyzer (Glucoloader GXT, A&T Corp.). The plasma glucose AUC (mg/dL min) in each mouse was calculated using the plasma glucose values at 5 minutes before and 15, 30, 60 and 120 minutes after the glucose administration. The arithmetic mean of the AUC value was calculated for each group and the percentage decrease in plasma glucose AUC (%) compared with the negative control group was calculated as an index of the efficacy.

SMILES | inhibition in vivo at 10 mg/kg [%]
CC[C@@H](Oc1ccc(C(=O)C(C)C)cc1)c1nc(-c2ccc(C(=O)N[C@H](C)CO)c(F)c2)no1 [Example 15, 2-Fluoro-N-[(1R)-2-hydroxy-1-methylethyl]-4-{5-[(1R)-1-(4-isobutyrylphenoxy)propyl]-1,2,4-oxadiazol-3-yl}benzamide] | 5 to 20
C[C@H](CO)NC(=O)c1ccc(-c2noc([C@@H](C)Oc3ccc(C(=O)C4CC4)cc3)n2)cc1F [Example 10, 4-(5-{(1R)-1-[4-(Cyclopropylcarbonyl)phenoxy]ethyl}-1,2,4-oxadiazol-3-yl)-2-fluoro-N-[(1R)-2-hydroxy-1-methylethyl]benzamide] | 5 to 20
C[C@@H](Oc1ccc(C(=O)C2CC2)cc1)c1nc(-c2ccc(C(=O)N[C@H](C)[C@@H](O)CO)c(F)c2)no1 [Example 23, 4-(5-{(1R)-1-[4-(Cyclopropylcarbonyl)phenoxy]ethyl}-1,2,4-oxadiazol-3-yl)-N-[(1R,2R)-2,3-dihydroxy-1-methylpropyl]-2-fluorobenzamide] | > 20
CC[C@@H](Oc1ccc(C(=O)C2CC2)cc1)c1nc(-c2ccc(C(=O)N[C@H](C)[C@@H](O)CO)c(F)c2)no1 [Example 19, 4-(5-{(1R)-1-[4-(Cyclopropylcarbonyl)phenoxy]propyl}-1,2,4-oxadiazol-3-yl)-N-[(1R,2R)-2,3-dihydroxy-1-methylpropyl]-2-fluorobenzamide] | 5 to 20
C[C@@H](CO)NC(=O)c1ccc(-c2noc([C@@H](C)Oc3ccc(C(=O)C4CC4)cc3)n2)cc1F [Example 8, 4-(5-{(1R)-1-[4-(Cyclopropylcarbonyl)phenoxy]ethyl}-1,2,4-oxadiazol-3-yl)-2-fluoro-N-[(1S)-2-hydroxy-1-methylethyl]benzamide] | 5 to 20
CC[C@@H](Oc1ccc(C(=O)C2(F)CC2)cc1)c1nc(-c2ccc(C(=O)NC(CO)CO)c(F)c2)no1 [Example 14, 2-Fluoro-4-{5-[(1R)-1-{4-[(1-fluorocyclopropyl)carbonyl]phenoxy}propyl]-1,2,4-oxadiazol-3-yl}-N-[2-hydroxy-1-(hydroxymethyl)ethyl]benzamide] | 5 to 20
CC[C@@H](Oc1ccc(C(=O)C2CC2)cc1)c1nc(-c2ccc(C(=O)NC[C@@H](O)CO)c(F)c2)no1 [Example 5, 4-(5-{(1R)-1-[4-(Cyclopropylcarbonyl)phenoxy]propyl}-1,2,4-oxadiazol-3-yl)-N-[(2R)-2,3-dihydroxypropyl]-2-fluorobenzamide] | 5 to 20
CC[C@@H](Oc1ccc(C(=O)C(C)C)cc1)c1nc(-c2ccc(C(=O)NC(CO)CO)c(F)c2)no1 [Example 16, 2-Fluoro-N-[2-hydroxy-1-(hydroxymethyl)ethyl]-4-{5-[(1R)-1-(isobutyrylphenoxy)propyl]-1,2,4-oxadiazol-3-yl}benzamide] | 5 to 20
CC[C@@H](Oc1ccc(C(=O)C2CC2)cc1)c1nc(-c2ccc(C(=O)N[C@H](CO)CCO)c(F)c2)no1 [Example 17, 4-(5-{(1R)-1-[4-(Cyclopropylcarbonyl)phenoxy]propyl}-1,2,4-oxadiazol-3-yl)-2-fluoro-N-[(1S)-3-hydroxy-1-(hydroxymethyl)propyl]benzamide] | 5 to 20
CC[C@@H](Oc1ccc(C(=O)C(C)(C)C)cc1)c1nc(-c2ccc(C(=O)NC(CO)CO)c(F)c2)no1 [Example 12, 4-(5-{(1R)-1-[4-(2,2-Dimethylpropanoyl)phenoxy]propyl}-1,2,4-oxadiazol-3-yl)-2-fluoro-N-[2-hydroxy-1-(hydroxymethyl)ethyl]benzamide] | 5 to 20
C[C@@H](Oc1ccc(C(=O)C2CC2)cc1)c1nc(-c2ccc(C(=O)NC(CO)CO)c(F)c2)no1 [Example 7, 4-(5-{(1R)-1-[4-(Cyclopropylcarbonyl)phenoxy]ethyl}-1,2,4-oxadiazol-3-yl)-2-fluoro-N-[2-hydroxy-1-(hydroxymethyl)ethyl]benzamide] | > 20
CC[C@@H](Oc1ccc(C(=O)C2CC2)cc1)c1nc(-c2ccc(C(=O)NC[C@H](O)CO)c(F)c2)no1 [Example 1, 4-(5-{(1R)-1-[4-(Cyclopropylcarbonyl)phenoxy]propyl}-1,2,4-oxadiazol-3-yl)-N-[(2S)-2,3-dihydroxypropyl]-2-fluorobenzamide] | > 20
CC[C@@H](Oc1ccc(C(=O)C2CC2)cc1)c1nc(-c2ccc(C(=O)N[C@@H](C)CO)c(F)c2)no1 [Example 4, 4-(5-{(1R)-1-[4-(Cyclopropylcarbonyl)phenoxy]propyl}-1,2,4-oxadiazol-3-yl)-2-fluoro-N-[(1S)-2-hydroxy-1-methylethyl]benzamide] | 5 to 20
CC[C@@H](Oc1ccc(C(=O)C2CCC2)cc1)c1nc(-c2ccc(C(=O)NC(CO)CO)c(F)c2)no1 [Example 13, 4-(5-{(1R)-1-[4-(Cyclobutylcarbonyl)phenoxy]propyl}-1,2,4-oxadiazol-3-yl)-2-fluoro-N-[2-hydroxy-1-(hydroxymethyl)ethyl]benzamide] | 5 to 20
CC[C@@H](Oc1ccc(C(=O)C2CC2)cc1)c1nc(-c2ccc(C(=O)N[C@@H](CO)C(N)=O)c(F)c2)no1 [Example 2, N-[(1S)-2-Amino-1-(hydroxymethyl)-2-oxoethyl]-4-(5-{(1R)-1-[4-(cyclopropylcarbonyl)phenoxy]propyl}-1,2,4-oxadiazol-3-yl)-2-fluorobenzamide] | > 20
CC[C@@H](Oc1ccc(C(=O)C2CC2)cc1)c1nc(-c2ccc(C(=O)N[C@H](C)CO)c(F)c2)no1 [Example 3, 4-(5-{(1R)-1-[4-(Cyclopropylcarbonyl)phenoxy]propyl}-1,2,4-oxadiazol-3-yl)-2-fluoro-N-[(1R)-2-hydroxy-1-methylethyl]benzamide] | 5 to 20
CC[C@@H](Oc1ccc(C(=O)C2CC2)cc1)c1nc(-c2ccc(C(=O)NC(CO)CO)c(F)c2)no1 [Example 6, 4-(5-{(1R)-1-[4-(Cyclopropylcarbonyl)phenoxy]propyl}-1,2,4-oxadiazol-3-yl)-2-fluoro-N-[2-hydroxy-1-(hydroxymethyl)ethyl]benzamide] | 5 to 20
C[C@@H](Oc1ccc(C(=O)C2CC2)cc1)c1nc(-c2ccc(C(=O)NC3CCCC3O)c(F)c2)no1 (stereo in doubt) [Example 9, 4-(5-{(1R)-1-[4-(Cyclopropylcarbonyl)phenoxy]ethyl}-1,2,4-oxadiazol-3-yl)-2-fluoro-N-[(1R,2R)-2-hydroxycyclopentyl]benzamide] | 5 to 20
C[C@@H](Oc1ccc(C(=O)C2CC2)cc1)c1nc(-c2ccc(C(=O)NC3CCCC3O)c(F)c2)no1 (stereo in doubt) [Example 11, 4-(5-{(1R)-1-[4-(Cyclopropylcarbonyl)phenoxy]ethyl}-1,2,4-oxadiazol-3-yl)-2-fluoro-N-[(1S,2S)-2-hydroxycyclopentyl]benzamide] | 5 to 20
